Measured values: patent EP0934252B1, “AMIDE DERIVATIVES AND THEIR USE AS PESTICIDES” (BAYER AG, priority 1996, dated 1998)

Key:
[1] = test system: Phytophthora infestans; type: in vivo; settings: Tomate, protektiv; for Wirkungsgrad in %: Aufwandmenge an Wirkstoff 50 g/ha, evaluated 3 days after inoculation, 0 % = as control, 100 % = no infestation; for Wirkungsgrad: Wirkstoffaufwandmenge 50 g/ha, summary sentence in the text for both compounds
[2] = logP (physical data of the preparation examples); type: physicochemical

Compound	Wirkungsgrad in % [1]	Wirkungsgrad [1]	logP [2]
COc1ccc(CCNC(=O)C(=O)c2ccc3c(c2)CCC3)cc1OC [Beispiel 3]	90%	90 -95%	2.92
COc1ccc(CCNC(=O)C(O)c2ccc3c(c2)CCCC3)cc1OC (stereo not shown) [Beispiel 2, N-[2-(3,4-Dimethoxyphenyl)-ethyl]-2-hydroxy-2-(5,6,7,8-tetrahydronaphthalin-2-yl)-acetamid]	–	–	2.43
COc1ccc(CCNC(=O)C(O)c2ccc3c(c2)CCCCC3)cc1OC (stereo not shown) [Beispiel 6]	–	–	2.7
COc1ccc(CCNC(=O)C(=O)c2ccc3c(c2)CCCC3)cc1OC [Beispiel 1, N-[2-(3,4-Dimethoxyphenyl)-ethyl]-2-oxo-2-(5,6,7,8-tetrahydronaphthalin-2-yl)-acetamid]	95%	90 -95%	3.24
COc1ccc(CCNC(=O)C(=O)c2ccc3c(c2)CCCCC3)cc1OC [Beispiel 4]	–	–	3.57
COc1ccc(CCNC(=O)C(O)c2ccc3c(c2)CCC3)cc1OC (stereo not shown) [Beispiel 5]	–	–	2.19
